From ChEMBL document CHEMBL1201862, “PubChem BioAssay data set” (2004) come the findings set out here.

Test systems include SNB-19; MOLT-4; RXF 393; SR; CCRF-CEM; SK-MEL-28; UO-31; NCI-H23; MDA-MB-435; U-251; A498; MDA-N; SW-620; SF-295; SN12C; KM12; DU-145; SF-539; EKVX.
Holding throughout (assay): DTP human tumour cell line panel, 48 h

By GI50 is commonly meant the concentration that inhibits growth by half.

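96-well plates; 48 h exposure; 5 concentrations. Endpoints by linear interpolation between flanking doses. Not reached: highest tested concentration assigned. Abbreviation: GI50, concentration required for 50% inhibition of growth.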 The source made the active and inactive calls. Rule as the data show it: active = GI50 up to about 1.1 µM and inactive = higher. Some results are limits rather than exact numbers.

As to `C=CCN1C(=O)CC2[C@@H]3CCc4cc(O)ccc4C3CC[C@]2(C)C1=O` (stereo partly drawn), the GI50 in the test with SNB-19, in the test on MOLT-4, in the test on RXF 393, in the test with SR, in the test with CCRF-CEM and in the test with SK-MEL-28 was > 10 µM (inactive) each time. Moreover, the GI50 with UO-31, with NCI-H23, in the test on MDA-MB-435, in the test on U-251, in the test with A498 and in the test with MDA-N was > 10 µM (inactive) throughout. For the same compound, the GI50 in the test on SW-620, with SF-295, in the test with SN12C, with KM12, with DU-145 and in the test with SF-539 was > 10 µM (inactive) throughout. For the same compound, the GI50 with EKVX was > 10 µM (inactive).

`O=C(c1ccccc1)N(CCCCNC(=O)C(F)(F)F)CCCNC(=O)C(F)(F)F`: the GI50 was > 100 µM (inactive) with SNB-19; > 100 µM (inactive) in the test on MOLT-4; > 100 µM (inactive) in the test on RXF 393; 0.94 µM (active) in the test on SR; > 100 µM (inactive) in the test on CCRF-CEM; > 100 µM (inactive) in the test on SK-MEL-28. Further, the GI50 in the test with UO-31, with NCI-H23, in the test with MDA-MB-435, with U-251, with A498 and in the test on MDA-N was > 100 µM (inactive) throughout. Further, the GI50 with SW-620, in the test with SF-295, in the test on SN12C, in the test on KM12, in the test with DU-145 and with SF-539 was > 100 µM (inactive) each time. Besides, the GI50 in the test with EKVX was > 100 µM (inactive).

`COc1cc(/C=C2\Sc3scc(-c4cccc([N+](=O)[O-])c4)[n+]3C2=O)cc(OC)c1OC`: the GI50 with SNB-19 was 16.7 µM (inactive); in the test on MOLT-4, 3.21 µM (inactive); with RXF 393, 12.5 µM (inactive); in the test on SR, 2.05 µM (inactive); in the test with CCRF-CEM, 44.9 µM (inactive); with SK-MEL-28 it was 16.1 µM (inactive). The GI50 in the test with UO-31 was 6.37 µM (inactive); in the test with NCI-H23, 15.1 µM (inactive); in the test on MDA-MB-435 it was 12.6 µM (inactive); with U-251, 11.6 µM (inactive); in the test on A498 it was 47 µM (inactive); in the test with MDA-N it was 11.9 µM (inactive). The GI50 in the test with SW-620 was 9.1 µM (inactive); in the test with SF-295, 16.3 µM (inactive); in the test with SN12C it was 18.1 µM (inactive); with KM12 it was 17.8 µM (inactive); in the test on DU-145, 15.2 µM (inactive); in the test with SF-539, 8.89 µM (inactive). The GI50 in the test on EKVX was 12.4 µM (inactive).

Turning to `CSC(=S)N(C)C` [CYSTOGON], the GI50 in the test with SNB-19, in the test on MOLT-4, in the test with RXF 393, in the test on SR, in the test with CCRF-CEM and with SK-MEL-28 was > 100 µM (inactive) each time. The GI50 with UO-31, in the test on NCI-H23, with MDA-MB-435, with U-251, with A498 and in the test with MDA-N was > 100 µM (inactive) throughout. For the same compound, the GI50 in the test with SW-620, in the test on SF-295, in the test on SN12C, with KM12, with DU-145 and in the test with SF-539 was > 100 µM (inactive) in each case. The GI50 in the test on EKVX is > 100 µM (inactive).

On to `Cc1cccc2c1C(=O)C(C1OC(=O)c3ccccc31)C2` (stereo not drawn), for which the GI50 in the test with SNB-19 is > 100 µM (inactive); with MOLT-4 it was > 100 µM (inactive); with RXF 393 it was 45.6 µM (inactive); in the test on SR, > 100 µM (inactive); in the test on CCRF-CEM, > 100 µM (inactive); in the test with SK-MEL-28, > 100 µM (inactive). Also, the GI50 in the test on UO-31 is > 100 µM (inactive); in the test with NCI-H23, > 100 µM (inactive); with MDA-MB-435, > 100 µM (inactive); in the test on U-251 it was 61 µM (inactive); in the test on A498, > 100 µM (inactive); in the test with MDA-N, > 100 µM (inactive). The GI50 with SW-620, in the test with SF-295, in the test with SN12C, with KM12, in the test on DU-145 and with SF-539 was > 100 µM (inactive) each time. The GI50 in the test with EKVX is > 100 µM (inactive).

Take `Oc1cccc(-c2cn3cc(Cl)ccc3n2)c1`: the GI50 in the test on SNB-19 is > 100 µM (inactive); in the test on MOLT-4, 32.7 µM (inactive); with RXF 393, 23.1 µM (inactive); in the test on SR it was 47.2 µM (inactive); in the test with CCRF-CEM, 7.03 µM (inactive); in the test with SK-MEL-28, 59.8 µM (inactive). Besides, the GI50 with UO-31 is 36.7 µM (inactive); in the test on NCI-H23, 51.8 µM (inactive); in the test on MDA-MB-435, 34.9 µM (inactive); in the test on U-251, 69.2 µM (inactive); in the test with A498 it was 45.3 µM (inactive); in the test with MDA-N, 39.8 µM (inactive). The GI50 with SW-620 is > 100 µM (inactive); with SF-295 it was 39.4 µM (inactive); with SN12C, 57.1 µM (inactive); in the test on KM12 it was 37.2 µM (inactive); in the test with DU-145 it was 31 µM (inactive); with EKVX it was 24.3 µM (inactive).

In the case of `NC(=O)NC(=O)c1cccc(NC(=O)CCl)c1`, the GI50 was 1.11 µM (active) with MOLT-4; 1.04 µM (active) in the test with RXF 393; 0.124 µM (active) with SR; 0.855 µM (active) with CCRF-CEM; 7 µM (inactive) in the test on SK-MEL-28; 0.168 µM (active) in the test on UO-31. Moreover, the GI50 with NCI-H23 was 0.953 µM (active); in the test on MDA-MB-435, 0.518 µM (active); in the test on U-251, 0.975 µM (active); with A498 it was 2.55 µM (inactive); with MDA-N it was 0.385 µM (active); with SW-620, 0.621 µM (active). For the same compound, the GI50 is 2.79 µM (inactive) in the test on SF-295; 1.43 µM (inactive) with SN12C; 0.579 µM (active) in the test on KM12; 1.36 µM (inactive) with DU-145; 0.655 µM (active) with SF-539; 7.01 µM (inactive) in the test on EKVX.

As for `O=C(CSc1nc2ccc(I)cc2c(=O)n1Cc1ccccc1)N/N=C/c1ccccc1`, the GI50 with SNB-19 is 17.5 µM (inactive); with MOLT-4 it was 58.1 µM (inactive); in the test with RXF 393, 8.13 µM (inactive); in the test on SR it was 13.5 µM (inactive); in the test on CCRF-CEM it was 40.9 µM (inactive); in the test with SK-MEL-28, > 100 µM (inactive). The GI50 was 17.5 µM (inactive) in the test with NCI-H23; > 100 µM (inactive) in the test on MDA-MB-435; 11.4 µM (inactive) with U-251; 15.2 µM (inactive) in the test with A498; > 100 µM (inactive) in the test with MDA-N; > 100 µM (inactive) in the test with SW-620. Also, the GI50 was 11.4 µM (inactive) with SF-295; 66.1 µM (inactive) with SN12C; 48.8 µM (inactive) in the test on KM12; 39.3 µM (inactive) in the test on DU-145; 26.9 µM (inactive) with SF-539; 26.6 µM (inactive) with EKVX.

Regarding `COC(=O)C1(C(=O)OC)N=C(C)OC1c1ccoc1` (stereo not drawn), the GI50 with SNB-19, in the test on MOLT-4, in the test with RXF 393, in the test on SR, in the test with CCRF-CEM and in the test with SK-MEL-28 was > 100 µM (inactive) throughout. For the same compound, the GI50 in the test with UO-31, with NCI-H23, with MDA-MB-435, in the test on U-251, with A498 and in the test with MDA-N was > 100 µM (inactive) throughout. Moreover, the GI50 in the test with SW-620, in the test with SF-295, in the test on SN12C, in the test on KM12, with DU-145 and in the test on EKVX was > 100 µM (inactive) each time.

Turning to `CC1OC(OC2C[C@](O)(C(=O)CBr)Cc3c(O)c4c(c(O)c32)C(=O)c2ccccc2C4=O)C(F)C(O)C1O` (stereo partly drawn), the GI50 with SNB-19 was 5.86 µM (inactive); with RXF 393 it was 18.5 µM (inactive); in the test with SR, 0.426 µM (active); with CCRF-CEM, 0.776 µM (active); in the test with SK-MEL-28, 23.8 µM (inactive); with UO-31, 1.22 µM (inactive). Also, the GI50 in the test with NCI-H23 was 5.58 µM (inactive); in the test with MDA-MB-435 it was 14.1 µM (inactive); in the test with U-251, 5.83 µM (inactive); in the test on A498, 11.8 µM (inactive); in the test on MDA-N it was 16.3 µM (inactive); in the test on SW-620 it was 2.69 µM (inactive). The GI50 with SF-295 was 3.54 µM (inactive); in the test on SN12C, 6.92 µM (inactive); with KM12, 19.6 µM (inactive); in the test with DU-145, 5.28 µM (inactive); in the test with SF-539 it was 4.54 µM (inactive); in the test on EKVX, 46.6 µM (inactive).

`CN(C)c1ccccc1CN1CCCN(Cc2ccccc2N(C)C)C1c1ccncc1`: the GI50 with SNB-19 is 12.9 µM (inactive); in the test on MOLT-4, 18.1 µM (inactive); in the test with RXF 393 it was 10.2 µM (inactive); in the test with SR it was 4.91 µM (inactive); in the test on SK-MEL-28 it was 9.06 µM (inactive); in the test on UO-31 it was 5.02 µM (inactive). In addition, the GI50 was 18.3 µM (inactive) in the test with NCI-H23; 6.28 µM (inactive) with MDA-MB-435; 23 µM (inactive) in the test on U-251; 12.4 µM (inactive) in the test with A498; 10.3 µM (inactive) with MDA-N; 16.3 µM (inactive) in the test on SW-620. Moreover, the GI50 was 15.3 µM (inactive) with SF-295; 20.4 µM (inactive) in the test with SN12C; 19.1 µM (inactive) with KM12; 16.9 µM (inactive) with DU-145; 16.4 µM (inactive) in the test with SF-539; 13.7 µM (inactive) with EKVX.
